# Reference: article PMC11108815 (Heliyon, 2024)
# Marks after values point to notes of the source that are not given here.
# Tests used:
# [1] = Pharmacokinetics in rat plasma; type: in vivo, Wistar rats; conditions: for AUC(0-inf): AUC0-∞; for CL/F: CLz/F; for MRT last: MRT0-t; for MRT inf: MRT0-∞
# [2] = Stability test of QC samples; type: physicochemical, rat
# [3] = Wistar, rat, plasma, po, 100 mg/kg, AUC0-t, FS-C: normal (blank) rats, oral FS 100 mg kg^−1, n = 6
# [4] = Wistar, rat, plasma, po, 100 mg/kg, AUC0-t, FT-C: normal (blank) rats, oral FT 100 mg kg^−1, n = 6
# [5] = Wistar, rat, plasma, po, 100 mg/kg, FS-C: normal (blank) rats, oral FS 100 mg kg^−1, n = 6
# [6] = Wistar, rat, plasma, po, 100 mg/kg, FT-C: normal (blank) rats, oral FT 100 mg kg^−1, n = 6
# [7] = Wistar, rat, plasma, po, 100 mg/kg, Cmax, FS-C: normal (blank) rats, oral FS 100 mg kg^−1, n = 6
# [8] = Wistar, rat, plasma, po, 100 mg/kg, Cmax, FT-C: normal (blank) rats, oral FT 100 mg kg^−1, n = 6
# [9] = Wistar, rat, plasma, po, 100 mg/kg, T1/2, FS-C: normal (blank) rats, oral FS 100 mg kg^−1, n = 6
# [10] = Wistar, rat, plasma, po, 100 mg/kg, Tmax, FS-C: normal (blank) rats, oral FS 100 mg kg^−1, n = 6
# [11] = Wistar, rat, plasma, po, 100 mg/kg, Tmax, FT-C: normal (blank) rats, oral FT 100 mg kg^−1, n = 6
# [12] = Wistar, rat, plasma, po, 100 mg/kg, Tmax, control group, after oral administration of FS or FT
# [13] = Store at 4 °C for 24 h, high concentration QC sample in rat plasma
# [14] = Store at 4 °C for 24 h, low concentration QC sample in rat plasma
# [15] = Store at 4 °C for 24 h, medium concentration QC sample in rat plasma
# [16] = Store at room temperature for 12 h, high concentration QC sample in rat plasma
# [17] = Store at room temperature for 12 h, low concentration QC sample in rat plasma
# [18] = Store at room temperature for 12 h, medium concentration QC sample in rat plasma
# [19] = Store at −20 °C for 20 days, high concentration QC sample in rat plasma
# [20] = Store at −20 °C for 20 days, low concentration QC sample in rat plasma
# [21] = Store at −20 °C for 20 days, medium concentration QC sample in rat plasma
# [22] = Three freeze-thaw cycles, high concentration QC sample in rat plasma
# [23] = Three freeze-thaw cycles, low concentration QC sample in rat plasma
# [24] = Three freeze-thaw cycles, medium concentration QC sample in rat plasma
# [25] = FS-C: normal (blank) rats, oral FS 100 mg kg^−1, n = 6
# [26] = FS-M: microcirculation dysfunction model rats, oral FS 100 mg kg^−1, n = 6
# [27] = FT-C: normal (blank) rats, oral FT 100 mg kg^−1, n = 6
# [28] = FT-M: microcirculation dysfunction model rats, oral FT 100 mg kg^−1, n = 6
# [29] = Wistar, rat, plasma, po, 100 mg/kg, T1/2, FT-C: normal (blank) rats, oral FT 100 mg kg^−1, n = 6
compound,measurement,setting,value
O=C(O)/C=C/c1ccc(O)c(O)c1 [Caffeic acid],AUC(0-t),[1]; [3],37.2 ± 11.5 ng·h/mL
same,AUC(0-t),[1]; [4],31.7 ± 12 ng·h/mL
same,AUC(0-inf),[1]; [5],40.5 ± 18.6 ng·h/mL
same,AUC(0-inf),[1]; [6],44.4 ± 30.2 ng·h/mL
same,CL/F,[1]; [5],5.67 mL/min/kg
same,CL/F,[1]; [6],10.2 mL/min/kg
same,Cmax,[1]; [7],5.78 ± 0.23 ng/mL
same,Cmax,[1]; [8],4.65 ± 0.38 ng/mL
same,MRT last,[1]; [5],5.78 ± 2.57 h
same,MRT last,[1]; [6],5.61 ± 2.5 h
same,MRT inf,[1]; [5],7.21 ± 5.95 h
same,MRT inf,[1]; [6],10.7 ± 10.2 h
same,half-life,[1]; [9],3.62 ± 4.88 h
same,Tmax,[1]; [10],0.72 ± 0.31 h
same,Tmax,[1]; [11],0.61 ± 0.68 h
same,Tmax,[1]; [12],> 0.47 h
same,Cmax in FT compared with FS,"[1]; normal group, p < 0.01, 0.05",significantly lower
same,Cmax after modeling compared with control group,[1]; oral administration of FS,decreased
same,AUC0-t after modeling compared with control group,[1]; oral administration of FT,increased
same,"Stability, Accuracy (RE, %)",[2]; [13],2.95%
same,"Stability, Accuracy (RE, %)",[2]; [14],6.27%
same,"Stability, Accuracy (RE, %)",[2]; [15],−2.07%
same,"Stability, Accuracy (RE, %)",[2]; [16],5.38%
same,"Stability, Accuracy (RE, %)",[2]; [17],−2.45%
same,"Stability, Accuracy (RE, %)",[2]; [18],2.52%
same,"Stability, Accuracy (RE, %)",[2]; [19],3.39%
same,"Stability, Accuracy (RE, %)",[2]; [20],−12.26%
same,"Stability, Accuracy (RE, %)",[2]; [21],0.41%
same,"Stability, Accuracy (RE, %)",[2]; [22],12.71%
same,"Stability, Accuracy (RE, %)",[2]; [23],3.68%
same,"Stability, Accuracy (RE, %)",[2]; [24],11.31%
O=C(O)[C@H](O)Cc1ccc(O)c(O)c1 [Danshensu],AUC0-∞,[1]; [25],641.77 ± 218.27 µg·h/L
same,AUC(0-t),[1]; [25],542.82 ± 141.09 ng·h/mL
same,CLz/F,[1]; [25],0.02 ± 0.01 L/h/kg
same,Cmax,[1]; [25],88.45 ± 17.93 ng/mL
same,MRT0-t,[1]; [25],6.53 ± 2.11 h
same,MRT0-∞,[1]; [25],11.93 ± 15.11 h
same,T1/2,[1]; [25],5.74 ± 11.19 h
same,Tmax,[1]; [25],0.67 ± 0.37 h
same,AUC0-∞,[1]; [26],947.33 ± 140.96 ^c μg·h·L^−1
same,AUC(0-t),[1]; [26],880.02 ± 141.73 ^d μg·h·L^−1
same,CLz/F,[1]; [26],0.01 ± 0.00 ^c L·h^−1·kg^−1
same,Cmax,[1]; [26],105.53 ± 11.68 ng/mL
same,MRT0-t,[1]; [26],7.53 ± 0.85 h
same,MRT0-∞,[1]; [26],9.53 ± 3.95 h
same,T1/2,[1]; [26],4.47 ± 3.92 h
same,Tmax,[1]; [26],0.74 ± 1.60 h
same,AUC0-∞,[1]; [27],588.72 ± 114.83 µg·h/L
same,AUC(0-t),[1]; [27],584.67 ± 122.39 ng·h/mL
same,CLz/F,[1]; [27],0.02 ± 0.00 L/h/kg
same,Cmax,[1]; [27],99.66 ± 15.57 ng/mL
same,MRT0-t,[1]; [27],7.54 ± 0.95 h
same,MRT0-∞,[1]; [27],7.81 ± 0.63 h
same,T1/2,[1]; [27],2.18 ± 2.22 h
same,Tmax,[1]; [27],0.47 ± 0.07 h
same,AUC0-∞,[1]; [28],767.88 ± 279.35 µg·h/L
same,AUC(0-t),[1]; [28],658.64 ± 172.02 ng·h/mL
same,CLz/F,[1]; [28],0.02 ± 0.01 L/h/kg
same,Cmax,[1]; [28],165.48 ± 7.83^f μg·L^−1
same,MRT0-t,[1]; [28],"5.33 ± 0.98 ^a^, ^e h"
same,MRT0-∞,[1]; [28],10.76 ± 12.84 h
same,T1/2,[1]; [28],6.40 ± 11.48 h
same,Tmax,[1]; [28],1.00 ± 0.00 ^f h
same,AUC0-t in model group compared with control group,"[1]; after modeling, p < 0.01, 0.05",significantly higher
same,AUC0-∞ in model group compared with control group,"[1]; after modeling, p < 0.01, 0.05",significantly higher
same,MRT0-t in the model group treated with FT,[1]; compared with the control group treated with FT and the model group treated with FS,decreased
same,shape of the drug-time curve,[1]; control group with oral FS,bimodal phenomenon
same,CLz/F after modeling compared with control group,[1]; oral administration of FS,decrease
same,Cmax after modeling compared with control group,[1]; oral administration of FT,significant increase
same,"Stability, Accuracy (RE, %)",[2]; [13],6.29%
same,"Stability, Accuracy (RE, %)",[2]; [14],−5.50%
same,"Stability, Accuracy (RE, %)",[2]; [15],5.99%
same,"Stability, Accuracy (RE, %)",[2]; [16],9.76%
same,"Stability, Accuracy (RE, %)",[2]; [17],−2.61%
same,"Stability, Accuracy (RE, %)",[2]; [18],1.50%
same,"Stability, Accuracy (RE, %)",[2]; [19],−8.83%
same,"Stability, Accuracy (RE, %)",[2]; [20],6.50%
same,"Stability, Accuracy (RE, %)",[2]; [21],0.73%
same,"Stability, Accuracy (RE, %)",[2]; [22],−3.63%
same,"Stability, Accuracy (RE, %)",[2]; [23],2.54%
same,"Stability, Accuracy (RE, %)",[2]; [24],−10.44%
O=C(/C=C/c1ccc(O)c2c1[C@H](C(=O)O)[C@@H](c1ccc(O)c(O)c1)O2)O[C@H](Cc1ccc(O)c(O)c1)C(=O)O [Lithospermic acid],AUC(0-t),[1]; [3],128 ± 40.5 ng·h/mL
same,AUC(0-t),[1]; [4],119 ± 48.8 ng·h/mL
same,AUC(0-inf),[1]; [5],164 ± 85 ng·h/mL
same,AUC(0-inf),[1]; [6],119 ± 48.9 ng·h/mL
same,CL/F,[1]; [5],150 mL/min/kg
same,CL/F,[1]; [6],289 mL/min/kg
same,Cmax,[1]; [7],11.4 ± 1.33 ng/mL
same,Cmax,[1]; [8],13.7 ± 2.76 ng/mL
same,MRT last,[1]; [5],6.61 ± 1.61 h
same,MRT last,[1]; [6],8.67 ± 3.71 h
same,MRT inf,[1]; [5],11.1 ± 10.8 h
same,MRT inf,[1]; [6],8.67 ± 3.71 h
same,half-life,[1]; [9],5.06 ± 8.9 h
same,half-life,[1]; [29],1.03 ± 0.45 h
same,Tmax,[1]; [10],0.31 ± 0.16 h
same,Tmax,[1]; [11],0.22 ± 0.13 h
same,Tmax,[1]; [12],< 0.39 h
same,AUC0-t in model group compared with control group,"[1]; after modeling, p < 0.01, 0.05",significantly higher
same,shape of the drug-time curve,[1]; both the control and model groups treated with oral FS or FT,bimodal phenomenon
same,Cmax after modeling compared with control group,[1]; oral administration of FS,increased
same,"Stability, Accuracy (RE, %)",[2]; [13],7.65%
same,"Stability, Accuracy (RE, %)",[2]; [14],6.82%
same,"Stability, Accuracy (RE, %)",[2]; [15],6.58%
same,"Stability, Accuracy (RE, %)",[2]; [16],11.92%
same,"Stability, Accuracy (RE, %)",[2]; [17],−5.80%
same,"Stability, Accuracy (RE, %)",[2]; [18],0.69%
same,"Stability, Accuracy (RE, %)",[2]; [19],−0.73%
same,"Stability, Accuracy (RE, %)",[2]; [20],−8.45%
same,"Stability, Accuracy (RE, %)",[2]; [21],0.15%
same,"Stability, Accuracy (RE, %)",[2]; [22],−10.67%
same,"Stability, Accuracy (RE, %)",[2]; [23],6.56%
same,"Stability, Accuracy (RE, %)",[2]; [24],9.01%
C[C@@H]1O[C@@H](OC[C@H]2O[C@@H](Oc3c(-c4ccc(O)c(O)c4)oc4cc(O)cc(O)c4c3=O)[C@H](O)[C@@H](O)[C@@H]2O)[C@H](O)[C@H](O)[C@H]1O [Rutin],AUC(0-t),[1]; [4],77.9 ± 11.9 ng·h/mL
same,AUC(0-inf),[1]; [6],116 ± 83.4 ng·h/mL
same,CL/F,[1]; [6],342 mL/min/kg
same,Cmax,[1]; [8],5.77 ± 0.62 ng/mL
same,MRT last,[1]; [6],7.51 ± 0.81 h
same,MRT inf,[1]; [6],15.4 ± 18.6 h
same,half-life,[1]; [29],7.39 ± 14.3 h
same,Tmax,[1]; [11],1.06 ± 1.47 h
same,Tmax,[1]; [12],> 0.47 h
same,"Stability, Accuracy (RE, %)",[2]; [13],0.42%
same,"Stability, Accuracy (RE, %)",[2]; [14],3.07%
same,"Stability, Accuracy (RE, %)",[2]; [15],7.93%
same,"Stability, Accuracy (RE, %)",[2]; [16],11.51%
same,"Stability, Accuracy (RE, %)",[2]; [17],−6.74%
same,"Stability, Accuracy (RE, %)",[2]; [18],0.45%
same,"Stability, Accuracy (RE, %)",[2]; [19],−1.16%
same,"Stability, Accuracy (RE, %)",[2]; [20],7.31%
same,"Stability, Accuracy (RE, %)",[2]; [21],−5.30%
same,"Stability, Accuracy (RE, %)",[2]; [22],4.10%
same,"Stability, Accuracy (RE, %)",[2]; [23],−8.01%
same,"Stability, Accuracy (RE, %)",[2]; [24],−5.39%
